Results on 52 molecules are retold here after patent US8778966B2, “Quinolinone derivatives as PARP and tank inhibitors” (Janssen Pharmaceutica, NV, priority 2007, dated 2014).

In experiment [1] the test system is HCT116 cells. Nature of the experiment: Mitotic arrest assay on HCT116 cells (phospho-histone H3 Ser10). Format: cell-based, human. To be noted: Homo sapiens, HCT-116, HCT116 cells; lowest active dose; read-out: Mitotic arrest HCT116 LAD (converted). An outline of the steps:
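Read-out is imaging of phospho-histone H3 Ser10 (Alexa Fluor 488) with Hoechst nuclear counting, after 6 h compound exposure at 37 °C, DMSO ≤0.1%. LAD is the lowest dose at which the blank-corrected value over SD exceeds 5; triplicates, low-count wells excluded.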

The subject of experiment [2] is HCT116 cells. Nature of the experiment: Antiproliferative activity, Alamar Blue assay, HCT116 cells. In kind it is cell-based, human. Also on record: key to HCT116 antiproliferative activity pIC50: pIC50 = -log IC50 (IC50: conc. reducing growth to 50% of control). Conditions: for IC50: Homo sapiens, HCT-116, HCT116 cells, read-out: HCT116 antiproliferative activity pIC50 (converted). An outline of the steps:
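Readout is resazurin fluorescence (ex 540, em 590 nm) after a 4 h dye incubation at 37 °C, following 4-day compound treatment of HCT116 cells plated 24 h earlier. Results expressed as % viable cells versus untreated; pIC50 derived from probit-fitted IC50.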
On the technique in general: The colour change of resazurin is a common sign of viable cells or microbes.

Like-named read-outs stand apart in the source and are kept apart here. Bounds are passed on as bounds.

Take `CCOc1cccc(CC(C)(C#N)c2ccc3cc(CC)c(=O)[nH]c3c2)c1` (stereo not shown) [Compound 285]: in the experiment on HCT116 cells [1], the minimal effective concentration is 0.3 µM. The IC50 with HCT116 cells [2] (Alamar Blue) was 794 nM.
As to `CCc1cc2ccc(C(C)(C#N)Cc3cccc(NC)n3)cc2[nH]c1=O` (stereo not shown) [Compound 339], the minimal effective concentration in the experiment with HCT116 cells [1] was 1 µM. Also, the IC50 with HCT116 cells [2] (Alamar Blue) is 2000 nM.
On the same counts, the results for `CCc1cc2ccc(C(C)(C#N)Cc3ccc(F)c(F)c3)cc2[nH]c1=O` (stereo not shown) [Compound 281] are 1 µM and 2000 nM.
For `Cc1cc2ccc([C@](C)(C#N)C3CCc4ccccc43)cc2[nH]c1=O` (single isomer, unassigned) [Compound 386] the same measures were 0.1 µM and 200 nM.
For `CCc1cc2ccc(C(C)(C#N)Cc3cc(C#N)nc(C)n3)cc2[nH]c1=O` (stereo not shown) [Compound 319] the same measures were 0.3 µM and 2510 nM.
For the molecule `CCc1cc2ccc(C(C)(C#N)Cc3cccc(C#N)[n+]3[O-])cc2[nH]c1=O` (stereo not shown) [Compound 228], the IC50 with HCT116 cells [2] was 1580 nM.
In the case of `CCc1cc2ccc(C(C)(C#N)Cc3cccc(C(=N)NO)c3)cc2[nH]c1=O` (stereo not shown) [Compound 186], the minimal effective concentration in the experiment on HCT116 cells [1] is 3 µM. Besides, in the experiment on HCT116 cells [2] (Alamar Blue), the IC50 was 3980 nM.
For `CCc1cc2c(OC)cc(C(C)(C#N)Cc3nc(OC)cc(OC)n3)cc2[nH]c1=O` (single isomer, unassigned) [Compound 230] the same measures were 1 µM and 1580 nM.
Take `CCc1cc2ccc(C(C)(C#N)Cc3c4ccccc4nn3C)cc2[nH]c1=O` (stereo not shown) [Compound 347]: the IC50 in the experiment on HCT116 cells [2] was 3160 nM.
With `CCc1cc2ccc(C(C)(C#N)Cc3nc(Cl)cc(OC)n3)cc2[nH]c1=O` (stereo not shown) [Compound 202], the minimal effective concentration in the experiment with HCT116 cells [1] was 0.1 µM. The IC50 with HCT116 cells [2] (Alamar Blue) was 200 nM.
Take `CCc1cc2ccc(C(C)(C#N)Cc3nc(C#N)cc(OC)n3)cc2[nH]c1=O` (single isomer, unassigned) [Compound 204]: in the experiment with HCT116 cells [2] (HCT116 cells), the “HCT116 antiproliferative activity pIC50” value was 7.0.
With `CCc1cc2ccc(C(C)(C#N)Cc3cc(Cl)nc(OC)c3)cc2[nH]c1=O` (stereo not shown) [Compound 351], the minimal effective concentration in the experiment on HCT116 cells [1] was 0.1 µM. For the same molecule, the IC50 in the experiment on HCT116 cells [2] (Alamar Blue) is 398 nM.
On the same counts, the results for `CCc1cc2ccc(C(C)(C#N)CN3CCN(c4ccccn4)CC3)cc2[nH]c1=O` (stereo not shown) [Compound 233] are 1 µM and 1000 nM.
For `C#CCOc1cccc(CC(C)(C#N)c2ccc3cc(CC)c(=O)[nH]c3c2)c1` (stereo not shown) [Compound 196], in the experiment on HCT116 cells [1], the minimal effective concentration is 0.3 µM. Moreover, the IC50 with HCT116 cells [2] (Alamar Blue) was 631 nM.
With `CCc1cc2ccc(C(C)(C#N)Cc3ccc4c(c3)OC(F)(F)O4)cc2[nH]c1=O` (stereo not shown) [Compound 346], in the experiment with HCT116 cells [1], the minimal effective concentration is 1 µM.
With `CCc1cc2ccc(C(C)(C#N)Cc3cc(C(C)C)ccc3OC)cc2[nH]c1=O` (stereo not shown) [Compound 288], in the experiment on HCT116 cells [1], the minimal effective concentration was 1 µM. The IC50 in the experiment with HCT116 cells [2] (Alamar Blue) was 10000 nM.
On the same counts, the results for `Cc1cc2ccc([C@@](C)(C#N)C3CCc4ccccc43)cc2[nH]c1=O` (single isomer, unassigned) [Compound 385] are 10 µM and 3980 nM.
`CCc1cc2ccc([C@@](C)(C#N)Cc3cccc(C#CCO)c3)cc2[nH]c1=O` (single isomer, unassigned) [Compound 295]: the minimal effective concentration in the experiment with HCT116 cells [1] is 10 µM. Also, the IC50 in the experiment with HCT116 cells [2] (Alamar Blue) was 10000 nM.
In the case of `CCc1cc2ccc(C(C)(C#N)Cc3cc(C#N)nc(N(C)C)c3)cc2[nH]c1=O` (stereo not shown) [Compound 325], the IC50 in the experiment on HCT116 cells [2] is 794 nM.
On to `Cc1cc2ccc(C(C)(C#N)Cc3cccc(OCC4CCOCC4)c3)cc2[nH]c1=O` (stereo not shown) [Compound 261], for which the minimal effective concentration in the experiment on HCT116 cells [1] is 1 µM. The IC50 with HCT116 cells [2] (Alamar Blue) is 5010 nM.
Take `CCc1cc2ccc(C(C)(C#N)Cc3cccc4[nH]ccc34)cc2[nH]c1=O` (stereo not shown) [Compound 379]: the minimal effective concentration with HCT116 cells [1] was 0.3 µM. Besides, the IC50 with HCT116 cells [2] (Alamar Blue) is 1260 nM.
For `CCc1cc2ccc(C(C)(C#N)Cc3cccc(N4CCC(N(C)C)C4)n3)cc2[nH]c1=O` (stereo not shown) [Compound 209] the same measures were 1 µM and 2000 nM.
Turning to `CCc1cc2ccc(C(C)(C#N)CN3CCC(c4ccccc4)CC3)cc2[nH]c1=O` (stereo not shown) [Compound 375], the minimal effective concentration with HCT116 cells [1] was 0.3 µM. The IC50 with HCT116 cells [2] (Alamar Blue) was 2000 nM.
On the same counts, the results for `Cc1cc2ccc(C(C)(C#N)Cc3cccc(I)c3)cc2[nH]c1=O` (stereo not shown) [Compound 256] are 0.1 µM and 398 nM.
For `Cc1cc2ccc(C(C)(C#N)C3CCCc4ccccc43)cc2[nH]c1=O` (stereo not shown) [Compound 404] the same measures were 1 µM and 1580 nM.
In the case of `CCc1cc2ccc(C(C)(C#N)Cc3cc(OC)ccc3F)cc2[nH]c1=O` (stereo not shown) [Compound 171], the IC50 in the experiment on HCT116 cells [2] is 126 nM.
Turning to `CCc1cc2ccc([C@](C)(C#N)Cc3cccc(/C=C/S(C)(=O)=O)c3)cc2[nH]c1=O` (single isomer, unassigned) [Compound 291], the minimal effective concentration in the experiment with HCT116 cells [1] was 0.1 µM. Further, in the experiment with HCT116 cells [2] (Alamar Blue), the IC50 was 200 nM.
Turning to `CCCC(C#N)(Cc1ccccc1)c1ccc2cc(CC)c(=O)[nH]c2c1` (stereo not shown) [Compound 31], the minimal effective concentration with HCT116 cells [1] was 1 µM. In the experiment with HCT116 cells [2], the IC50 was 3160 nM.
With `CCc1cc2ccc(C(C)(C#N)Cc3cc(N(C)C)nc(N(C)C)n3)cc2[nH]c1=O` (stereo not shown) [Compound 320], the minimal effective concentration with HCT116 cells [1] was 0.3 µM. Further, in the experiment on HCT116 cells [2] (Alamar Blue), the IC50 is 398 nM.
For `CCc1cc2ccc(C(C)(C#N)Cc3cccc(C#Cc4cncn4C)n3)cc2[nH]c1=O` (stereo not shown) [Compound 217] the same measures were 3 µM and 5010 nM.
On the same counts, the results for `CCc1cc2ccc(C(C)(C#N)CNCc3ccc(C#N)cc3)cc2[nH]c1=O` (stereo not shown) [Compound 302] are 1 µM and 5010 nM.
For `CCc1cc2ccc(C(C)(C#N)COCc3ccccc3)cc2[nH]c1=O` (stereo not shown) [Compound 197], the IC50 in the experiment on HCT116 cells [2] (Alamar Blue) is 2000 nM.
For the molecule `CCc1cc2ccc(C(C)(C#N)Cc3cccc(OC)c3F)cc2[nH]c1=O` (stereo not shown) [Compound 286], in the experiment on HCT116 cells [1], the minimal effective concentration was 1 µM. Further, the IC50 in the experiment on HCT116 cells [2] (Alamar Blue) was 5010 nM.
As for `CCc1cc2ccc(C(C)(C#N)Cc3cc(N(C)C)nc(C#N)n3)cc2[nH]c1=O` (stereo not shown) [Compound 317], the minimal effective concentration with HCT116 cells [1] is 1 µM. Further, the IC50 with HCT116 cells [2] (Alamar Blue) was 5010 nM.
For `CCc1cc2ccc(C(C)(C#N)CN(C)Cc3ccc(C#N)cc3)cc2[nH]c1=O` (stereo not shown) [Compound 300] the same measures were 0.3 µM and 631 nM.
On the same counts, the results for `CCc1cc2ccc([C@](C)(C#N)Cc3cc(OC)nc(C)n3)cc2[nH]c1=O` (single isomer, unassigned) [Compound 362] are 0.3 µM and 1000 nM.
For `CCc1cc2ccc(C(C)(C#N)Cc3cc(N(C)C)nc(OC)n3)cc2[nH]c1=O` (stereo not shown) [Compound 354] the same measures were 1 µM and 3160 nM.
As for `CCc1cc2ccc(C(C)(C#N)Cc3cccc(OCCS(C)(=O)=O)c3)cc2[nH]c1=O` (stereo not shown) [Compound 201], the IC50 in the experiment on HCT116 cells [2] was 2510 nM.
As for `CCc1cc2ccc([C@@](C)(C#N)Cc3cc(OC)nc(C)n3)cc2[nH]c1=O` (single isomer, unassigned) [Compound 361], in the experiment on HCT116 cells [1], the minimal effective concentration is 10 µM. In addition, the IC50 with HCT116 cells [2] (Alamar Blue) was 10000 nM.
For `CCc1cc2ccc(C(C)(C#N)Cc3nc(C#N)cc(N(C)C)n3)cc2[nH]c1=O` (stereo not shown) [Compound 318] the same measures were 0.3 µM and 631 nM.
As to `CCc1cc2ccc(C(C#N)(Cc3ccccc3)c3ccc(C#N)cc3)cc2[nH]c1=O` (stereo not shown) [Compound 26], the minimal effective concentration with HCT116 cells [1] is more than 10 µM. Further, the IC50 with HCT116 cells [2] is 2510 nM.
For the molecule `CCc1cc2ccc(C(C)(C#N)Cc3cc(Br)cc4c3OCC4)cc2[nH]c1=O` (stereo not shown) [Compound 378], the minimal effective concentration in the experiment on HCT116 cells [1] is 0.1 µM. Besides, the IC50 in the experiment on HCT116 cells [2] (Alamar Blue) is 501 nM.
As to `CCc1cc2ccc(C(C)(C#N)Cc3cccc(/C=N/O)c3)cc2[nH]c1=O` (stereo not shown) [Compound 299], in the experiment on HCT116 cells [2] (Alamar Blue), the IC50 was 631 nM.
For `CCc1cc2ccc(C(C)(C#N)Cc3cccc4c3CCN4)cc2[nH]c1=O` (stereo not shown) [Compound 237], in the experiment with HCT116 cells [1], the minimal effective concentration was 1 µM. The IC50 with HCT116 cells [2] (Alamar Blue) was 2510 nM.
For the molecule `CCc1cc2ccc(C(C#N)(Cc3ccccc3)C(C)C)cc2[nH]c1=O` (stereo not shown) [Compound 30], in the experiment with HCT116 cells [1], the minimal effective concentration was 3.16 µM. Further, the IC50 in the experiment on HCT116 cells [2] was 1260 nM.
Regarding `CCc1cc2ccc(C(C)(C#N)Cc3cccc(-c4ccc[nH]4)c3)cc2[nH]c1=O` (stereo not shown) [Compound 176], in the experiment on HCT116 cells [1], the minimal effective concentration was 1 µM. The IC50 in the experiment with HCT116 cells [2] (Alamar Blue) was 5010 nM.
For `Cc1cc2ccc([C@](C)(C#N)[C@H]3CCc4ccccc43)cc2[nH]c1=O` [Compound 387] the same measures were 3 µM and 2510 nM.
Turning to `CCc1cc2ccc(C(C)(C#N)Cc3cc(Cl)nc(C)n3)cc2[nH]c1=O` (stereo not shown) [Compound 365], the minimal effective concentration in the experiment with HCT116 cells [1] is 0.3 µM. Also, the IC50 in the experiment with HCT116 cells [2] (Alamar Blue) is 631 nM.
For `CCc1cc2ccc(C(C)(C#N)Cc3cc(OC)nc(OC)c3)cc2[nH]c1=O` (stereo not shown) [Compound 350], the IC50 in the experiment on HCT116 cells [2] (Alamar Blue) was 794 nM.
`CCc1cc2ccc(C(C)(C#N)Cc3cc(C#N)nc(OC)c3)cc2[nH]c1=O` (stereo not shown) [Compound 314]: the IC50 in the experiment on HCT116 cells [2] was 631 nM.
On to `CCc1cc2ccc(C(C)(C#N)Cc3cccc(/C=N/OC)c3)cc2[nH]c1=O` (stereo not shown) [Compound 185], for which the IC50 in the experiment with HCT116 cells [2] was 200 nM.
Same read-out and setting: under `CCc1cc2ccc(C(C)(C#N)Cc3cccc(OCCCC#N)c3)cc2[nH]c1=O` (stereo not shown) [Compound 194] stands 501 nM.
